Assay results as given in patent US20200063169A1, “METHODS AND COMPOSITIONS FOR THE PRODUCTION OF LIPIDS” (THE UNIVERSITY OF BRITISH COLUMBIA, priority 2017, published 2020).

Legend:
FcrA [1] = assay: FcrA activity assays (spectrophotometric, NADPH oxidation / DTNB); type: biochemical, Rhodococcus jostii RHA1; settings: for Specific Activity: 5 μM acyl-CoA, 200 μM NADPH, pH 7.0, 25° C.
Description: FcrA activity was evaluated using two spectrophotometric assays. Assays were performed at 25° C. in 1 mL 20 mM MOPS, 80 mM NaCl, pH 7.0 (I=0.1 M) containing 5 μM acyl-CoA and 200 μM NADPH. Reactions were initiated by the addition of FcrA to a final concentration of 0.5 to 2 μM. In one assay, the oxidation of NADPH was followed at 340 nm (E=6.3 mM mM^−1 cm^−1 [43]). In the second assay, the reaction mixture also contained 0.1 mg/mL DTNB, and the formation of NTB^2− was followed at 412 nm (E=14.15 mM^−1 cm^−1 for NTB^2−[44]). Reaction rates were calculated from progress curves using Cary WinUV Kinetics Application (Agilent). The pH-dependence of the reaction was evaluated using the DTNB assay and a series of 20 mM Good's buffers (MES, MOPS, HEPPS, or TAPS), 80 mM NaCl (I=0.1 M), pH 6 to 9.
Because related two-domain enzymes completely reduce acyl-CoAs to fatty alcohols and have been used in biotechnology applications, further efforts were focused on exploring the function of FcrA, To investigate the activity of FcrA, it was first produced as a C-terminally His-tagged protein in RHA1 and purified to greater than 95% apparent homogeneity (FIG. 4A). The molecular mass of FcrA-His6 was 73627 Da, which corresponds to the mass of the protein (73758 Da) less the N-terminal methionine (131 Da). Then, to evaluate the ability of FcrA to catalyze the formation of fatty alcohols, 1.4 μM FcrA was incubated with 400 μM NADPH and 100 μM oleoyl-CoA in 1 mL 20 mM Tris-HCl, pH 7.0, 50 mM NaCl for 20 h at room temperature. The reaction was quenched with 1 mL saturated NaCl and 100 μM of tetradecanol was added as a standard. […] No alcohol was detected in control reactions in which FcrA was omitted. […] As with previously characterized FARs, activity was maximal at pH 7.0. […] Among the tested substrates, FcrA had highest specific activity for stearoyl-CoA (C18-CoA), reducing it at a rate of 45±3 nmol/mg·min. The specific activity of FcrA dropped off with decreasing chain length of the acyl-CoA substrate (Table 2).

FcrA [2] = assay: FcrA fatty alcohol formation, reaction products analysed by GC/MS; type: biochemical, Rhodococcus jostii RHA1; settings: 1.4 μM FcrA, 400 μM NADPH, 100 μM oleoyl-CoA, pH 7.0, 20 h, room temperature
Description: To analyze fatty alcohols produced in vitro, quenched reactions of 2 mL were extracted with 5 mL of 2:1 chloroform:methanol (v/v). The organic phase was collected, washed once with 1:1 H2O:methanol, and three times with H2O. The organic phase was removed and dried under nitrogen stream. The extract was suspended in pyridine and derivatized with […] for 1 h at 60° C. Derivatized extracts were analyzed by gas chromatography-mass spectrometry (GC/MS) as described below.
Analyses were performed using an Agilent 6890n gas chromatograph system fitted with an HP-5 MS 30 m×0.25 mm capillary column (Hewlett-Packard) and an Agilent 5973n mass-selective detector. […] WEs were further identified by comparison to an authentic stearyl stearate standard and were quantified using a standard curve generated using palmityl myristate (Nu-Chek Prep).
Because related two-domain enzymes completely reduce acyl-CoAs to fatty alcohols and have been used in biotechnology applications, further efforts were focused on exploring the function of FcrA, To investigate the activity of FcrA, it was first produced as a C-terminally His-tagged protein in RHA1 and purified to greater than 95% apparent homogeneity (FIG. 4A). […] No alcohol was detected in control reactions in which FcrA was omitted. […]

Row | SMILES | Specific Activity (FcrA [1]; FcrA with acyl-CoA substrate) | also measured
1 | CCCCCCCCCCCC(=O)SCCNC(=O)CCNC(=O)[C@H](O)C(C)(C)COP(=O)(O)OP(=O)(O)OC[C@H]1O[C@@H](n2cnc3c(N)ncnc32)[C@H](O)[C@@H]1OP(=O)(O)O [Lauroyl-CoA] | 1.5 ± 0.3 nmol/min/(mg protein) | –
2 | NC(=O)C1=CN([C@@H]2O[C@H](COP(=O)(O)OP(=O)(O)OC[C@H]3O[C@@H](n4cnc5c(N)ncnc54)[C@H](O)[C@@H]3O)[C@@H](O)[C@H]2O)C=CC1 [NADH] | – | FcrA activity with cofactor in place of NADPH (FcrA [1]; NADPH substituted with NADH): no activity was detected
3 | CCCCCCCC/C=C\CCCCCCCC(=O)SCCNC(=O)CCNC(=O)[C@H](O)C(C)(C)COP(=O)(O)OP(=O)(O)OC[C@H]1O[C@@H](n2cnc3c(N)ncnc32)[C@H](O)[C@@H]1OP(=O)(O)O [Oleoyl-CoA] | 41 ± 1 nmol/min/(mg protein) | conversion of acyl-CoA to fatty alcohol by FcrA (FcrA [2]): converted oleoyl-CoA to oleyl alcohol; rate of reduction by FcrA compared with stearoyl-CoA (FcrA [1]; monounsaturated acyl-CoA substrate): reduced at a similar rate to stearoyl-CoA
4 | CCCCCCCCCCCCCCCC(=O)SCCNC(=O)CCNC(=O)[C@H](O)C(C)(C)COP(=O)(O)OP(=O)(O)OC[C@H]1O[C@@H](n2cnc3c(N)ncnc32)[C@H](O)[C@@H]1OP(=O)(O)O [Palmitoyl-CoA] | 7.0 ± 0.1 nmol/min/(mg protein) | –
5 | CCCCCCCCCCCCCCCCCC(=O)SCCNC(=O)CCNC(=O)[C@H](O)C(C)(C)COP(=O)(O)OP(=O)(O)OC[C@H]1O[C@@H](n2cnc3c(N)ncnc32)[C@H](O)[C@@H]1OP(=O)(O)O [Stearoyl-CoA] | 45 ± 3 nmol/min/(mg protein) | specific activity (rate of reduction by FcrA) (FcrA [1]; FcrA with acyl-CoA substrate): 45 ± 3 nmol/mg/min
